Data: patent publication US8404696B2, “Quinazoline-2,4-dione derivative, and medical compositions for the prophylaxis and treatment of cranial nerve disease containing the same” (Shin Poong Pharmaceutical Co., Ltd., priority 2008, dated 2013)
In brackets after ≈: the same amount, converted by molar mass.

Assays:
[1] = tested on: mouse brain cells; assay: Inhibitory effect on ROS production in brain cells (DCF-DA, NMDA-induced); format: cell-based; conditions: dose suppressing 50% of production of reactive oxygen compared to control, mouse brain cells; for IC50: 24 h, read-out: ROS inhibitory effect ID50
Experimental: Oxidative stress was measured to test inhibitory effects on the production of reactive oxygen species (ROS) by using DCF-DA, which is a fluorescent probe. Brain cells were obtained from brain cortex of mouse to prepare cell solution with 2×10^6 cells/ml. Each brain cell was treated with 11 μM of DCF-DA followed by reaction in 37° C., 5% CO2 incubator for an hour. After washing twice, Compound 3 was treated with a concentration of 125 μg/ml and 250 μg/ml. At the same time, 300 μM of NMDA was treated and it was incubated in 37° C., 5% CO2 incubator for 24 hours.
(§1) ROS inhibitory effect of compounds was represented to the dose suppressing 50% of production of reactive oxygen compared to control. […] The activity of superoxide dismutase (SOD) was measured by using a kit acquired in Sigma.

[2] = tested on: pentylentetrazole (PTZ)-induced convulsion; assay: Anti-convulsant effect, pentylentetrazole (PTZ) test; format: in vivo; conditions: 10 mg/kg intraperitoneally, PTZ 80 mg/kg subcutaneously; for mortality rate / Induction percentage of convulsion: (animals/total); for mortality rate: negative control 70(17/23); for Induction percentage of convulsion: negative control 100(23/23); for Initiation time of convulsion: negative control 5.0 ± 0.7; for Duration of convulsion: negative control 46.7 ± 3.3
Experimental: An experiment was performed by the method of Ali et al. (Ali, A. et al. 2006, Pharmacological Reports, 58: 242-245). A 10 mg/kg dose of compound was intraperitoneally administered to identify the anti-convulsant effect and the effect was observed (Table 8). Researching the process of activity was performed by the Anti-epileptic Drug Development Program (ADD) of NIH during development of the anti-convulsant drug. One of the assessed items of anti-convulsant activity in the first step of this program is the pentylentetrazole (PTZ) test. […] After 10 mg/kg of the testing drug was administered, assessment was performed by estimating the initiation time of convulsion, duration until convulsion completely disappeared and mortality rate. It was assessed as having an anti-convulsant effect when a single episode of clonic spasm was not shown over 5 seconds on at least one of the 4 laboratory animals after PTZ administration.

[3] = tested on: superoxide dismutase (SOD); assay: Increase of superoxide dismutase (SOD) activity in mouse brain cells; format: cell-based; conditions: 100 μg/ml
Experimental: as §1

[4] = tested on: mixed culture of nerve cells-glial cells; assay: Protecting effect on NMDA-induced nerve cell death (LDH release); format: cell-based, ICR mouse; conditions: 100 μM NMDA, LDH release after 24 hours
Experimental: Isolation and culture of nerve cells were performed by Choi's method (Choi, D. W. 1985, Neurosci. Lett., 58: 293-297). That is, the cortex was isolated in fetus ICR mouse that was 14 days pregnant, and then single cells were obtained from the tissue using pipette. The cells were aliquoted into 2×10^5/well density in a 24-well plate (Falcon) in which glial cells of cerebral cortex had been cultured in an incubator maintained at 37° C. with 5% CO2 for over 3 weeks. The culture medium was supplemented with MEM (minimum essential medium, Sigma), 2 mM glutamine, 21 mM glucose, 26.5 mM bicarbonate, 10% fetal bovine serum (FBS). In 3-5 days after aliquot, 10 μM Ara-C (cytosine arabinoside) was treated to suppress proliferation of neuroglia. And it was treated with 100 μM NMDA and 1 μg/mL or 2 μg/mL of each sample (compound) to induce the death of nerve cells due to excitable toxicity for 20 minutes, in 12-15 days after aliquot. Because of nerve cell death, lactate dehydrogenase (LDH) accumulated in proportion to the number of dead cells. In 24 hours after drug treatment, the amount of dehydrogenase (LDH) released to outside of cells was measured by using an […] measurement kit (CytoTox 96, Promega). After the reaction was completed, the change of absorbance depending on the amount of LDH was measured by using a microplate spectrophotometer.

[5] = tested on: thoracic aorta of rats; assay: Relaxing effect on thoracic aorta contracted by phenylephrine (organ bath); parameters: species or system rats of SD species; conditions: Rattus norvegicus; 67 μg/mL; phenylephrine 0.5 μM; mean n = 3; read-out: Relaxation percentage
Source text: After male rats of SD species (250-300 g) were anesthetized by inhalation of ether, their thoracic aortas were extracted and put into a Krebs buffer (mM; NaCl 118, NaHCO3 27.3, KCl 4.8, MgSO4 1.2, KH2PO4 1.0, CaCl2 1.25, glucose 11.1). 2 mm of aortic ring was made under dissecting microscope and cultured in an organ bath to measure the tension of blood vessels. The organ bath was filled with Krebs buffer and saturated with 95% O2, 5% CO2 to maintain dissolved oxygen and physiological pH. Changing of tension was measured by a tension meter (Hugo-sachs, model K30) and recorded by physiological recorder (Coulbourn polygraph). The length of the blood vessels was increased step by step to make 1.0 g of basal tension for 90 minutes. The equilibrated blood vessel was contracted by phenylephrine (0.5 μM). When the contraction furrow reached equilibrium, compounds were added, followed by observation of relaxation response.

SMILES	IC50 [1] [µg/mL]	mortality rate [2]	Induction percentage of convulsion [2]	Initiation time of convulsion [2] [min]	Duration of convulsion [2] [min]	Increase of SOD activity, compared to control [3]	Inhibitory effect of cell death by NMDA-induced excitable neurotoxicity ([4]; 1 μg/ml compound) [%]	Inhibitory effect of cell death by NMDA-induced excitable neurotoxicity ([4]; 2 μg/ml compound) [%]	inhibition at 67 µg/mL [5] [%]	ROS inhibitory effect ID50 [1] [µg/mL]
Cn1c(=O)n(CCCNCCCCNCCCn2c(=O)c3ccccc3n(C)c2=O)c(=O)c2ccccc21 [Compound 27, 1-methyl-3-(3-{4-[3-(1-methyl-2,4-dioxo-1,4-dihydro-2H-quinazolin-3-yl)propylamino]butylamino}propyl)-1H-quinazoline-2,4-dione]	21.9 ± 16.1 (≈ 42.1 µM)	50(3/6) %	100(6/6) %	8.4 ± 2.6	35.8 ± 9.8	2.4 ± 7.8	33.7	36.0	–	–
CCOC(=O)N(CCCCNCCCn1c(=O)[nH]c2ccccc2c1=O)CCCn1c(=O)[nH]c2ccccc2c1=O [Compound 5, [3-(2,4-dioxo-1,4-dihydro-2H-quinazolin-3-yl)propyl]-{4-[3-(2,4-dioxo-1,4-dihydro-2H-quinazolin-3-yl)propylamino]butyl}carbamic Acid ethyl ester]	24.4 ± 10.5 (≈ 43.2 µM)	–	–	–	–	2.5 ± 2.8	11.4	39.4	19.2	–
O=C1c2ccccc2C(=O)N1CCCNCCCCNCCCn1c(=O)[nH]c2ccccc2c1=O [Compound 28, 3-(3-{4-[3-(1,3-dioxo-1,3-dihydro-isoindole-2-yl)propylamino]butylamino}propyl)-1H-quinazoline-2,4-dione]	30.9 ± 13.7 (≈ 64.7 µM)	0(0/6) %	100(6/6) %	4.8 ± 2.2	26.9 ± 6.5	–	23.1	22.4	8.3	–
O=C(N(CCCCN(CCCn1c(=O)[nH]c2ccccc2c1=O)C(=O)C(F)(F)F)CCCn1c(=O)[nH]c2ccccc2c1=O)C(F)(F)F [Compound 37, N-[3-(2,4-dioxo-1,4-dihydro-2H-quinazolin-3-yl)propyl]-N-{4-[[3-(2,4-dioxo-1,4-dihydro-2H-quinazolin-3-yl)propyl]-(2,2,2-trifluoroacetyl)amino]butyl}-2,2,2-trifluoroacetamide]	22.9 ± 17.3 (≈ 33.5 µM)	–	–	–	–	2.0 ± 5.8	27.3	25.0	7.9	–
CCOC(=O)N(CCCCN(CCCn1c(=O)[nH]c2ccccc2c1=O)C(C)=O)CCCn1c(=O)[nH]c2ccccc2c1=O [Compound 14, (4-{acetyl-[3-(2,4-dioxo-1,4-dihydro-2H-quinazolin-3-yl)propyl]amino}butyl)-[3-(2,4-dioxo-1,4-dihydro-2H-quinazolin-3-yl)propyl]carbanic Acid ethyl ester]	–	0(0/6) %	100(6/6) %	8.5 ± 1.8	2.9 ± 2.1	2.7 ± 1.0	18.9	26.9	–	90.1 ± 12.2
CC(=O)N(CCCCn1c(=O)[nH]c2ccccc2c1=O)CCCn1c(=O)[nH]c2ccccc2c1=O [Compound 22, N-[4-(2,4-dioxo-1,4-dihydro-2H-quinazolin-3-yl)butyl]-N-[3-(2,4-dioxo-1,4-dihydro-2H-quinazolin-3-yl)propyl]acetamide]	172 ± 23.6 (≈ 361 µM)	0(0/6) %	83(5/6) %	15.2 ± 9.0	7.0 ± 3.2	3.7 ± 0.8	17.0	14.0	–	–
CCCCCCn1c(=O)n(CCCN(CCCCN(CCCn2c(=O)c3ccccc3n(CCCCCC)c2=O)C(=O)OC(C)(C)C)C(=O)OC(C)(C)C)c(=O)c2ccccc21 [Compound 32, (4-{tert-butoxycarbonyl-[3-(1-hexyl-2,4-dioxo-1,4-dihydro-2H-quinazolin-3-yl)propyl]amino}butyl)-[3-(1-hexyl-2,4-dioxo-1,4-dihydro-2H-quinazolin-3-yl)propyl]carbamic acid tert-butyl ester]	14.4 ± 7.6 (≈ 16.7 µM)	50(3/6) %	100(5/6) %	11.3 ± 4.5	29.8 ± 12.0	0.3 ± 7.1	32.0	29.8	–	–
O=c1[nH]c2ccccc2c(=O)n1CCCNCCNCCCn1c(=O)[nH]c2ccccc2c1=O [Compound 29, 3-(3-{2-[3-(2,4-dioxo-1,4-dihydro-2H-quinazolin-3-yl)propylamino]ethylamino}propyl)-1H-quinazoline-2,4-dione]	10.1 ± 17.3 (≈ 21.7 µM)	17(1/6) %	83(5/6) %	18.2 ± 9.1	30.3 ± 11.1	3.0 ± 1.1	8.5	29.5	–	–
O=c1[nH]c2ccccc2c(=O)n1CCCNCCCNCCCn1c(=O)[nH]c2ccccc2c1=O [Compound 24, 3-(3-{3-[3-(2,4-dioxo-1,4-dihydro-2H-quinazolin-3-yl)propylamino]propylamino}propyl)-1H-quinazoline-2,4dione]	122 ± 32.4 (≈ 256 µM)	50(3/3) %	100(6/6) %	6.1 ± 1.7	35.7 ± 84	6.9 ± 3.8	27.4	30.3	–	–
Cc1ccc(S(=O)(=O)N(CCCCNCCCn2c(=O)[nH]c3ccccc3c2=O)CCCn2c(=O)[nH]c3ccccc3c2=O)cc1 [Compound 40, N-[3-(2,4-dioxo-1,4-dihydro-2H-quinazolin-3-yl)propyl]-N-{4-[3-(2,4-dioxo-1,4-dihydro-2H-quinazolin-3-yl)propylamino]butyl}-4-methylbenzenesulfonamide]	31 ± 8.1 (≈ 47.9 µM)	83(5/6) %	100(6/6) %	11.2 ± 2.4	42.3 ± 8.5	8.3 ± 3.2	–	34.5	–	–
